The target of assay [1] is PHD2 enzyme (residues 181-417) (Homo sapiens (Human), UniProt Q9GZT9). The assay is described as follows: Inhibition of PHD enzyme (LC/MS peptide hydroxylation assay). It counts as biochemical. Conditions: PHD2 (residues 181-417) 5 nM, 60 min pre-incubation, -log(IC50), IC50 molar; for IC50: read-out: PHD Inhibition (pIC50) (converted). As for the experimental part:
Example A Inhibition of PHD Enzyme
The IC50 values for the PHD2 enzyme (residues 181-417) were determined by mixing increasing amounts of inhibitor with a fixed amount of enzyme (5 nM, final concentration) and Biotin labeled peptide (Biotin-Asp-Leu-Glu-Met-Leu-Ala-Pro-Tyr-Ile-Pro-Met-Asp-Asp-Asp-Phe-Gln-Leu, 1 uM final concentration) and 2-Oxyglutarate (2 uM final concentration) in 50 mM HEPES, 50 mM KCl, 0.5 mM TCEP, 2 uM FeCl2, 0.1 mg/ml BSA, at pH 7.3. The reaction was conducted by pre-incubating the enzyme in the presence of inhibitor for 60 min at room temperature. The activity of the free enzyme was measured by adding the peptide, the 2-Oxoglutarate (see above for final concentrations), and Ascorbic Acid (1 mM final concentration). The enzymatic activity was quenched after 60 min by adding an excess of a tight binding inhibitor to the assay mixture. The amount of product released was measured by using a LC/MS system (Agilent HPLC with Applied Biosystems API3000 Mass Spectrometer). Data were analyzed using the classical isotherm equation for the determination of IC50 values and are pIC50, i.e., −log(IC50), where IC50 is molar concentration and are reported as pIC50, i.e., −log(IC50), where IC50 is molar concentration.

Assay [2] relates to HIF1a protein in H9c2 rat cardiomyocytes. The assay is described as follows: Cell-based HIF-alpha stabilization assay (inhibition of PHD in cells). Conditions: 24 hrs compound incubation, HIF1a protein by ELISA; for EC50: Rattus norvegicus, H9c2, 24 h, read-out: Inhibition of PHD in cells (pEC50) (converted). As for the experimental part: Example B Inhibition of PHD in Cells
PHD Inhibition is Determined Using (Secondary Assay)
Cell-Based HIF-Alpha Stabilization Assay:
H9c2 rat cardiomyocytes (ATCC) were seeded in 96-well tissue culture microplates and cultured for 24 hours prior to addition of compounds (11 point range of serial dilutions) or dimethylsulfoxide vehicle. After 24 hrs of compound incubation, whole cell extracts were prepared by lysing cells in cell extraction buffer containing protease and phosphatase inhibitors (Meso-Scale Discovery). HIF1a protein content was assessed by ELISA (Meso-Scale Discovery) and expressed as a % relative to the maximum response obtained from the positive control, desferrioxamine (Sigma-Aldrich). Compound EC50s were obtained by curve-fitting using XLfit4 MicroSoft Excel curve-fitting software. Compound EC50pos were obtained using XLfit4 to calculate the compound concentration that results in 50% of the desferrioxamine maximum response.

Sequence of PHD2 enzyme (residues 181-417) (Q9GZT9 181-417): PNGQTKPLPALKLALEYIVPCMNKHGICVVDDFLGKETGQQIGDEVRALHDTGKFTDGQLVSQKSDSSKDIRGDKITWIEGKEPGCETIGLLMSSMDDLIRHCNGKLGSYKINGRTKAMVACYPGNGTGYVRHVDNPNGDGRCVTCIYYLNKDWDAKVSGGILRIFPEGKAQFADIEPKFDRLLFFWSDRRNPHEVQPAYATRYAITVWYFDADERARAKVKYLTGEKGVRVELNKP

On to `Cc1cc(C#N)ccc1-c1cnn(-c2ccc(C(=O)N3CCN4CCCC4C3)cn2)c1O` (racemic) [Example 288, (+/−)-4-(5-hydroxy-1-(5-(octahydropyrrolo[1,2-a]pyrazine-2-carbonyl)pyridin-2-yl)-1H-pyrazol-4-yl)-3-methylbenzonitrile], for which the IC50 in assay [1] was 3.31 nM. Moreover, the EC50 in assay [2] was 575 nM. For `CCN(C)CC1CCN(C(=O)c2ccc(-n3ncc(-c4ccc(C#N)cc4C)c3O)nc2)C1` (racemic) [Example 295, (+/−)-4-(1-(5-(3-((ethyl(methyl)amino)methyl)pyrrolidine-1-carbonyl)pyridin-2-yl)-5-hydroxy-1H-pyrazol-4-yl)-3-methylbenzonitrile] the same measures were 14.1 nM and 339 nM. Regarding `CC(NC(=O)c1ccc(-n2ncc(-c3ccc(C#N)cc3)c2O)nc1)C1CC1` (stereo in doubt) [Example 260, (S)-6-(4-(4-cyanophenyl)-5-hydroxy-1H-pyrazol-1-yl)-N-(1-cyclopropylethyl)nicotinamide], the “PHD Inhibition (pIC50)” value in assay [1] is 7.17. For the same compound, in assay [2], the “Inhibition of PHD in cells (pEC50)” value was 6.23. Take `Cc1cc(C#N)ccc1-c1cnn(-c2ccc(C(=O)N3CCCC(N(C)C4CC4)C3)cn2)c1O` (stereo in doubt) [Example 386, (S)-4-(1-(5-(3-(cyclopropyl(methyl)amino)piperidine-1-carbonyl)pyridin-2-yl)-5-hydroxy-1H-pyrazol-4-yl)-3-methylbenzonitrile]: the “PHD Inhibition (pIC50)” value in assay [1] turned out to be 8.23. Moreover, the “Inhibition of PHD in cells (pEC50)” value in assay [2] turned out to be 6.15.

Consider `COc1cc(-c2cnn(-c3ccc(C(=O)NCc4ccccc4)cn3)c2O)ccn1` [Example 2, N-benzyl-6-(5-hydroxy-4-(2-methoxypyridin-4-yl)-1H-pyrazol-1-yl)nicotinamide], for which the “PHD Inhibition (pIC50)” value in assay [1] is listed as 7.03. The EC50 in assay [2] is 1260 nM. For `COCC1(NC(=O)c2ccc(-n3ncc(-c4ccnc(OC)c4)c3O)nc2)CCCC1` [Example 3, 6-(5-hydroxy-4-(2-methoxypyridin-4-yl)-1H-pyrazol-1-yl)-N-(1-(methoxymethyl)cyclopentyl)nicotinamide], in that order: 7.3 and 724 nM. For `COc1cc(-c2cnn(-c3ccc(C(=O)NC4(C)CC4)cn3)c2O)ccn1` [Example 4, 6-(5-hydroxy-4-(2-methoxypyridin-4-yl)-1H-pyrazol-1-yl)-N-(1-methylcyclopropyl)nicotinamide] the same measures were 6.92 and 525 nM. For `COc1cc(-c2cnn(-c3ccc(C(=O)NC(C)C)cn3)c2O)ccn1` [Example 5, 6-(5-hydroxy-4-(2-methoxypyridin-4-yl)-1H-pyrazol-1-yl)-N-isopropylnicotinamide], the “PHD Inhibition (pIC50)” value in assay [1] was determined as 7.01. For the same compound, the EC50 in assay [2] was 562 nM. For `COc1cc(-c2cnn(-c3ccc(C(=O)NCC(C)C)cn3)c2O)ccn1` [Example 6, 6-(5-hydroxy-4-(2-methoxypyridin-4-yl)-1H-pyrazol-1-yl)-N-isobutylnicotinamide], in that order: 7.02 and 955 nM. For `COc1cc(-c2cnn(-c3ccc(C(=O)NCCOC(C)C)cn3)c2O)ccn1` [Example 7, 6-(5-hydroxy-4-(2-methoxypyridin-4-yl)-1H-pyrazol-1-yl)-N-(2-isopropoxyethyl)nicotinamide] the same measures were 7.03 and 1000 nM. For `CCCNC(=O)c1ccc(-n2ncc(-c3ccnc(OC)c3)c2O)nc1` [Example 8, 6-(5-hydroxy-4-(2-methoxypyridin-4-yl)-1H-pyrazol-1-yl)-N-propylnicotinamide], in that order: 7.03 and 603 nM. Turning to `COc1cc(-c2cnn(-c3ccc(C(=O)N[C@H]4CC[C@@H](OC)CC4)cn3)c2O)ccn1` [Example 9, 6-(5-hydroxy-4-(2-methoxypyridin-4-yl)-1H-pyrazol-1-yl)-N-((1s,4s)-4-methoxycyclohexyl)nicotinamide], the “PHD Inhibition (pIC50)” value in assay [1] is listed as 7.5. In assay [2], the EC50 is 525 nM. For `CC[C@H](C)NC(=O)c1ccc(-n2ncc(-c3ccnc(OC)c3)c2O)nc1` [Example 10, (S)—N-(sec-butyl)-6-(5-hydroxy-4-(2-methoxypyridin-4-yl)-1H-pyrazol-1-yl)nicotinamide], in that order: 7.09 and 676 nM. For `CCOCCCNC(=O)c1ccc(-n2ncc(-c3ccnc(OC)c3)c2O)nc1` [Example 12, N-(3-ethoxypropyl)-6-(5-hydroxy-4-(2-methoxypyridin-4-yl)-1H-pyrazol-1-yl)nicotinamide] the same measures were 7.44 and 661 nM. With `COc1cc(-c2cnn(-c3ccc(C(=O)NC4CCC4)cn3)c2O)ccn1` [Example 13, N-cyclobutyl-6-(5-hydroxy-4-(2-methoxypyridin-4-yl)-1H-pyrazol-1-yl)nicotinamide], the “PHD Inhibition (pIC50)” value in assay [1] was 7.15. Further, in assay [2], the EC50 is 417 nM.

Turning to `COCC1(CNC(=O)c2ccc(-n3ncc(-c4ccnc(OC)c4)c3O)nc2)CC1` [Example 14, 6-(5-hydroxy-4-(2-methoxypyridin-4-yl)-1H-pyrazol-1-yl)-N-((1-(methoxymethyl)cyclopropyl)methyl)nicotinamide], the “PHD Inhibition (pIC50)” value in assay [1] was 7.27. In assay [2], the EC50 is 871 nM.

For the compound `COc1cc(-c2cnn(-c3ccc(C(=O)NC4CCOCC4)cn3)c2O)ccn1` [Example 15, 6-(5-hydroxy-4-(2-methoxypyridin-4-yl)-1H-pyrazol-1-yl)-N-(tetrahydro-2H-pyran-4-yl)nicotinamide], in assay [1], the “PHD Inhibition (pIC50)” value was 7.21. In addition, the EC50 in assay [2] was 646 nM.

Take `COc1cc(-c2cnn(-c3ccc(C(=O)N[C@@H](C)C4CCOCC4)cn3)c2O)ccn1` [Example 16, (S)-6-(5-hydroxy-4-(2-methoxypyridin-4-yl)-1H-pyrazol-1-yl)-N-(1-(tetrahydro-2H-pyran-4-yl)ethyl)nicotinamide]: the “PHD Inhibition (pIC50)” value in assay [1] amounted to 7.38. Also, in assay [2], the EC50 was 200 nM.

Turning to `COCC(C)(C)NC(=O)c1ccc(-n2ncc(-c3ccnc(OC)c3)c2O)nc1` [Example 17, 6-(5-hydroxy-4-(2-methoxypyridin-4-yl)-1H-pyrazol-1-yl)-N-(1-methoxy-2-methylpropan-2-yl)nicotinamide], the “PHD Inhibition (pIC50)” value in assay [1] is 7.03. Moreover, in assay [2], the EC50 is 347 nM. For `CCCN1CCC(NC(=O)c2ccc(-n3ncc(-c4ccnc(OC)c4)c3O)nc2)CC1` [Example 24, 6-(5-hydroxy-4-(2-methoxypyridin-4-yl)-1H-pyrazol-1-yl)-N-(1-propylpiperidin-4-yl)nicotinamide] the same measures were 7.04 and 10700 nM. `COc1cc(-c2cnn(-c3ccc(C(=O)NCCO)cn3)c2O)ccn1` [Example 25, 6-(5-hydroxy-4-(2-methoxypyridin-4-yl)-1H-pyrazol-1-yl)-N-(2-hydroxyethyl)nicotinamide]: in assay [1], the “PHD Inhibition (pIC50)” value is listed as 7.1. In addition, the EC50 in assay [2] was 4470 nM. For `COCCNC(=O)c1cnc(-n2ncc(-c3ccc(C#N)cc3)c2O)cc1C` [Example 276, 6-(4-(4-cyanophenyl)-5-hydroxy-1H-pyrazol-1-yl)-N-(2-methoxyethyl)-4-methylnicotinamide], the EC50 in assay [2] was 3630 nM. Regarding `CCN1CCC(CN(C)C(=O)c2ccc(-n3ncc(-c4ccc(C#N)cc4)c3O)nc2)C1` (stereo not shown) [Example 366, 6-(4-(4-cyanophenyl)-5-hydroxy-1H-pyrazol-1-yl)-N-((1-ethylpyrrolidin-3-yl)methyl)-N-methylnicotinamide], in assay [2], the EC50 was 3800 nM. Turning to `CCCN1CCN(C(=O)c2ccc(-n3ncc(-c4ccc(C#N)cc4C)c3O)nc2)C[C@@H]1C` [Example 374, (S)-4-(5-hydroxy-1-(5-(3-methyl-4-propylpiperazine-1-carbonyl)pyridin-2-yl)-1H-pyrazol-4-yl)-3-methylbenzonitrile], the EC50 in assay [2] is 100 nM. Still for that read-out and setting: in the case of `Cc1cc(C#N)ccc1-c1cnn(-c2ccc(C(=O)N3CCN(C)C[C@@H]3C)cn2)c1O` [Example 391, (S)-4-(1-(5-(2,4-dimethylpiperazine-1-carbonyl)pyridin-2-yl)-5-hydroxy-1H-pyrazol-4-yl)-3-methylbenzonitrile] it was 1550 nM.
